Reference: article PMC7154662, “Structural Insight into IAPP‐Derived Amyloid Inhibitors and Their Mechanism of Action” (Angewandte Chemie (International Ed. in English), 2020)
Entries after “also recorded” stand apart in the source; their conditions may differ.

Experiments:
[1] = Morphology by TEM, DIC and fluorescence microscopy; assay type: physicochemical; conditions: DIC experiments; 10 mM sodium phosphate buffer, pH 7.4 (1% v/v HFIP)
Method: Figure 1 R3‐GI self‐assembly. […] On the right, the binding curve is shown. The estimated app. […] Data are means (±SEM) from three binding curves. […] Scale bar: 10 μm.
(§1) Peptide synthesis and sample preparation for NMR
(§2) The other peptide samples were
(§3) Sample preparation for DLS, TEM and DIC
(§4) (containing 1% v/v HFIP) without filtration. The Fluor-647-Aβ40 was ordered from AnaSpec, […]
(§5) for 20 min before capturing images. […]
(§6) microscope, as described elsewhere. An oil immersion objective (Apo-TIRF 100x Oil/NA 1.49, Nikon) was used for all measurements.
(§7) Picoquant) was used for excitation. Fluorescence emission was detected using an avalanche […]
(§8) measurements were carried out at 22 °C.
(§9) (measured before the back aperture of the objective). […]
(§10) temperature within 2-5 min following solution preparation. The determined app. Kd is means (±SD) from three binding curves.
Cross-linking studies were performed as previously described. […]
(§11) Effects of peptides on amyloidogenesis of Aβ40 were determined using a previously established ThT binding assay as described. […] ThT binding was determined immediately by measuring fluorescence emission at 486 nm following excitation at 450 nm using a 2030 Multilabel Reader VictorX3 (PerkinElmer Life Sciences). […]
(§12) PA 19440, USA; Formvar/Carbon 300 mesh copper coated). Samples were measured immediately employing an EM 10 CR (Zeiss, Germany). […]

[2] = Solution-state NMR (NOESY, chemical shifts) structural characterization; assay type: physicochemical
Method: as §1, §2, §3, §4, §5, §6, §7, §8, §9
quantify the signal-to-noise ratio. For the R3-GI peptide, the signal to noise ratio of the isolated Thr-CH3 peak amounts to […]. For the reference peptide, the signal to noise of the single Thr-CH3 peak corresponds to 216.82. The ratio of concentrations amounts to a factor of 20.83. Otherwise, 1D-1H spectra were recorded under identical conditions. […]
images in which we determined the partitioning coefficient of the R3-GI solution (Fig. S3). […]
correlation time which in turn would result in higher NOESY cross peak intensities. A) H- H NOESY spectrum recorded for a 500 μM solution of R3-GI, using a salt concentration of 2.5 mM (black) and 50 mM NaCl (red), respectively. […]
recorded for a 500 μM solution of R3-GI, setting the pH to 5.98 (blue), 6.87 (green), 7.06 (red) and 7.23 (black). […]

Aβ40 [3] = test: Solubility of 15N-labeled Aβ40 in presence of ISM (NMR titration); assay type: binding; conditions: for Aβ40 signal at tenfold excess of ISM, in words: molar ratio Aβ/ISM 1:10; for Effect on Aβ40 solubility upon titration, in words: titration with / incubation of monomeric Aβ40
Method: (§13) Figure 5 ISM–substrate interactions. A) ^15N‐filtered 1D‐^1H spectra of a 20 μM sample of ^15N‐labeled Aβ40 in the absence (black) and presence of the ISM inhibitor K3‐L3‐K3‐GI (top), and the non‐inhibitor G3‐GI (bottom). […] At this molar excess, the intensities of Aβ40 are reduced only to ca. 28 % when G3‐GI is titrated to Aβ40. […] At a molar ratio of 1:10 for Aβ/inhibitor, the spectrum is dominated by the resonances of the inhibitor. […] B) 2D ^1H‐^15N HSQCs of Aβ40 incubated with K3‐L3‐K3‐GI (red) at a molar ratio of 1:1. The Aβ40 reference spectrum is represented in black. […] C) Comparison of the DIC and fluorescence microscopy images of R3‐GI/Aβ40, K3‐L3‐K3‐GI/Aβ40, and G3‐GI/Aβ40. […] Scale: 10 μm.

Aβ40 [4] = test: Co-localization of Fluos-labeled ISMs with Fluor-647-Aβ40 (DIC and fluorescence microscopy); assay type: binding; conditions: incubated at room temperature for 20 min
Method: as §13, §1, §2, §3
(containing 1% v/v HFIP) without filtration. The Fluor-647-Aβ40 was ordered from AnaSpec,
for 20 min before capturing images.
microscope, as described elsewhere. An oil immersion objective (Apo-TIRF 100x Oil/NA
1.49, Nikon) was used for all measurements.
Picoquant) was used for excitation. Fluorescence emission was detected using an avalanche
as §8
(measured before the back aperture of the objective).

Aβ40/42 = conditions: ref 1b; cited from earlier work
Excerpt: The design of the ISMs was based on the finding that amyloids are generally composed of a β‐sheet‐turn‐β‐sheet structural motif and that IAPP uses the same two binding regions for both its amyloid self‐ and its cross‐amyloid hetero‐assem ... || Our studies focused on the two ISMs R3‐GI and K3‐L3‐K3‐GI for the following reasons (Figure 1 A and Table S1 in the Supporting Information): 1) R3‐GI was used in solution‐state NMR studies as the intrinsically low solubility of all ISMs with hydrophobic linkers makes them unsuitable for solution‐state NMR spectroscopy. […] Multivalent interactions between an inhibitor molecule and an amyloid fibril have been exploited by Wall and co‐workers,27 who designed an α‐helical peptide with a lysine basic side chain to interact with negatively charged residues exposed on the surface of amyloid structures. These inhibitors are used as imaging reagents and stabilize a fibrillar fold. In contrast, ISMs prevent amyloid form ...

[5] = Saturation transfer difference (STD) NMR; assay type: physicochemical; conditions: R3-GI 1.25 mM, control peptide 60 μM, 10 mM sodium phosphate buffer, pH 7.4 (1% v/v HFIP, 10% v/v D2O)
Aβ = conditions: cited from earlier work
Excerpt: (§14) Single‐site binding events are the classical paradigm for a drug–enzyme complex. Because of the low affinity and the lack of deep binding pockets, this class of inhibitors is not very effective for amyloids (Figure 7, top). Nevertheless, it has been shown that multi‐ligand interactions of tramisprosate with monomeric Aβ42 can prevent amyloid oligo ...

Aβ42 = conditions: multi-ligand interactions with monomeric Aβ42; cited from earlier work
Excerpt: as §14

Aβ40 [6] = test: TEM of ISM-induced Aβ40 aggregates; assay type: biochemical; conditions: equimolar amount of K3-L3-K3-GI
Method: Figure 6 Structural characterization of K3‐L3‐K3‐GI‐induced Aβ40 aggregates. A, B) TEM images of Aβ40 in the absence (A) and presence (B) of an equimolar amount of K3‐L3‐K3‐GI. Scale bar: 200 nm. C) 2D ^13C,^15N MAS solid‐state NMR correlation spectra obtained for K3‐L3‐K3‐GI‐induced Aβ40 aggregates (red). To prepare the sample, a 20 μM solution of monomeric Aβ40 was incubated with a 1.23‐fold molar excess of K3‐L3‐K3‐GI. For reference, the correlation spectrum obtained for Aβ40 fibrils is shown in black. To prepare the Aβ40 fibril sample, monomeric Aβ40 was grown using 5 % seeds, following the protocol described by Lopez and co‐workers.17 (D) Cα–Cβ chemical shift differences for K3‐L3‐K3‐GI‐induced Aβ40 aggregates (top). TALOS+^[19]‐predicted secondary structure propensity (bottom). […]
temperature within 2-5 min following solution preparation. The determined app. […]
as §11, §12

[7] = Solubility of ISMs (qualitative); assay type: physicochemical
Aβ40 [8] = test: Effects of ISM on Aβ40 amyloid self-assembly (ThT binding assay); assay type: biochemical; conditions: Aβ40/ISM 1/1, 50 mM sodium phosphate buffer, pH 7.4, 100 mM NaCl, 1% HFIP, room temperature, 3 assays
Method: as §10
Cross-linking studies were performed as previously described. Briefly, R3-GI was dissolved at 500 μM in aqueous 10 mM sodium phosphate buffer, pH 7.4, and incubated for the indicated time points at room temperature, cross-linked with aqueous glutaraldehyde (25%) (Sigma-Aldrich), precipitated with aqueous trichloroacetic acid (TCA) (10%) and pellets were dissolved in NuPAGE sample buffer and subjected to NuPAGE electrophoresis in 4-12% Bis-Tris gels with MES running buffer. Equal amounts of peptide were loaded in all lanes. Coomassie blue staining was performed following standard protocols.
Dynamic light scattering experiments […]
as §11
(A) Amyloid self-assembly of Aβ40 alone and its mixtures (1:1) with K3-L3-K3-GI or L3-GI (control) determined using the ThT binding assay (means (±SEM), 3 assays). […]
7 days aged solutions from (A) were added to PC12 cells; cell damage was assessed by the MTT reduction assay (means (±SEM), 3 assays (n=3 each)). […]

[9] = 20 μM 15N-labeled Aβ40, molar ratio 1:1

ATQRLANFLVH-GGG-NF(N-Me)GA(N-Me)ILS [G3-GI]
Macroscopic particles in solution (DIC) [1]: macroscopic particles are observed
Long-range NOE contacts (loop formation) [2]: only weak long‐range NOEs if any
Aβ40 solubility at 1:1, in words (Aβ40 [3]; [9]): almost unaffected
Aβ40 resonance intensity remaining at tenfold excess of ISM (Aβ40 [3]; 20 μM 15N-labeled Aβ40, molar ratio Aβ/ISM 1:10): ca. 28%
Aβ40 signal at tenfold excess of ISM, in words (Aβ40 [3]): high intensities were observed
Effect on Aβ40 solubility upon titration, in words (Aβ40 [3]): no effects on Aβ40 solubility were observed
Co-localization with Aβ40 (Aβ40 [4]): no co‐localization with Aβ40
Aβ amyloid self-assembly inhibition, in words (Aβ40/42): non‐inhibitor

GVAEPEQDCAVTSGE
STD NMR signals [5]: monomeric
STD NMR signals ([5]; listed as monomeric peptide used as a control): no STD signals

CSc1ccc(/C=C2/C(C)=C(CC(=O)O)c3cc(F)ccc32)cc1 [sulindac sulfide]
Effect on Aβ peptide aggregation (Aβ): accelerates Aβ peptide aggregation

NCCCS(=O)(=O)O [tramisprosate]
Effect on Aβ42 amyloid oligomer formation (Aβ42): can prevent amyloid oligomer formation

KKK-ATQRLANFLVH-LLL-NF(N-Me)GA(N-Me)ILS-KKK [K3-L3-K3-GI]
Aβ40 remaining in solution (Aβ40 [3]; [9]): 9%
Aβ40 chemical shift changes upon ISM addition (Aβ40 [3]; 2D 1H-15N HSQC, molar ratio 1:1): not affected; also recorded: No Aβ40 chemical shift changes were observed
Aβ40 signal at tenfold excess of ISM, in words (Aβ40 [3]): almost empty; also recorded: disappear quantitatively
Effect on Aβ40 solubility upon titration, in words (Aβ40 [3]): precipitated quickly out of solution
Morphology of ISM-induced Aβ40 aggregates (Aβ40 [6]): mainly amorphous aggregates
Co-localization with Aβ40 (Aβ40 [4]): co‐localize with Aβ40
Solubility, in words [7]: reasonably soluble
Function of K3-L3-K3-GI as analogue of L3-GI (Figure S1) (Aβ40 [8]): functional analogue
